What was measured:
[1] = tested on: eight Q189 mutants; format: biochemical, SARS-CoV-2
[2] = target: Mpro G15S, T21I, L89F, K90R, P108S, P132H, and L205V; details: cited from earlier work
[3] = target: Mpro S144A; details: cited from earlier work
[4] = tested on: rNsp5^H172Q recombinant SARS-CoV-2; format: cell-based
[5] = tested on: Mpro H172Y; details: cited from earlier work
[6] = tested on: rNsp5^E166Q recombinant SARS-CoV-2; format: cell-based
[7] = tested on: rNsp5^S144M recombinant SARS-CoV-2; format: cell-based
[8] = tested on: Mpro M49I, M49T, M49L, and M49V; format: biochemical, SARS-CoV-2
[9] = tested on: rNsp5^H172Y recombinant SARS-CoV-2; format: cell-based
[10] = tested on: top nine high-frequency mutants at residue N142; format: biochemical, SARS-CoV-2
[11] = tested on: rNsp5^S144A recombinant SARS-CoV-2; format: cell-based
[12] = tested on: Mpro Q192T, Q192S, Q192L, Q192A, Q192I, Q192P, Q192H, Q192V, Q192W, Q192C, and Q192F; format: biochemical, SARS-CoV-2

Compound | change in IC50 vs WT [1] [fold] | IC50 or Ki value shifts [2] [fold] | Ki increase [3] [fold] | EC50 [4] [µM] | EC50 fold increase compared to rNsp5^WT [4] [fold] | increase in Ki [5] [fold] | EC50 [6] [µM] | EC50 fold increase compared to rNsp5^WT [6] [fold] | EC50 [7] [µM] | EC50 fold increase compared to rNsp5^WT [7] [fold] | change in IC50 vs WT [8] [fold] | EC50 [9] [µM] | change in IC50 vs WT [10] [fold] | EC50 [11] [µM] | EC50 fold increase compared to rNsp5^WT [11] [fold] | Cross-resistance (fold vs WT) [12] [fold]
CC(C)(C)[C@H](NC(=O)C(F)(F)F)C(=O)N1C[C@H]2[C@@H]([C@H]1C(=O)N[C@H](C#N)C[C@@H]1CCNC1=O)C2(C)C [nirmatrelvir] | < 3.1 | < 2 | 91.9 | 0.133 ± 0.00286 | 5.2 | 233 | 0.0697 | 2.7 | 0.0871 ± 0.00306 | 3.4 | < 3 | 0.378 ± 0.0102 | < 3.5 | 0.127 | 5.0 | –
CC(C)C[C@H](NC(=O)OCc1ccccc1)C(=O)N[C@@H](CC1CCNC1=O)C(O)S(=O)(=O)[O-].[Na+] (stereo partly shown) [GC-376] | – | – | – | – | – | – | – | – | – | – | – | – | – | – | – | > 7.7

— article PMC10451032 (ACS Central Science, 2023)
